# PMC11611271, “Rapid prediction of key residues for foldability by machine learning model enables the design of highly functional libraries with hyperstable constrained peptide scaffolds” (PLOS Computational Biology, 2024)
# B1: 5ji4-A7 (peptide)
# chain: H-PCECTILRGWHFLTSSAECERLCRKLGVTNCRVHCG-OH
# modifications: disulfide (positions not given here); also: three disulfide bonds, pairing not given here
# B2: 5ji4-RSP-1 (peptide)
# chain: PCECDVNGETYTVSSSEECEPLCWMYNEHFCRVHCG
# notes: hit from the 5JI4 scaffold phage libraries; free N- and C-termini; three disulfide bonds; source: synthetic peptide (CSBio), folded in vitro, HPLC purified
# How the values were obtained:
# [1] = system: CD8α; test: phage spot ELISA on CD8α; assay type: binding
# Text: (§1) To determine the performance of the libraries for ligand discovery we chose a panel of eight protein targets, which have no structural homology and a wide mass range (Fig 7C). We screened these eight targets with solution panning strategy and two additional plate panning for CD8α/β and CD28, thus ten panning campaigns in total. We consider clones showing spot phage ELISA signal > 0.3 and signal/noise ratio > 2 as positive hits. At least one binding hit was discovered for nine out of the ten panning campaigns, surpassing the success rate of the best DCP scaffolds reported previously. We also obtained the NGS data for these screening and the ranking of clones for their enrichment along the rounds of screening was analyzed and considered the top-ranking clones as potential hits. Based on their sequence diversity we selected 16 potential hits spanning five protein targets for peptide synthesis in their linear form. Seven of these are hits with positive phage ELISA signal and nine were selected based on NGS ranking without spot ELISA available. Subsequently, we conducted in vitro folding experiments on these peptides in various buffers. We observed a strong propensity for spontaneous folding regardless of the buffer condition. All HCP hits tested successfully folded into three-disulfide-containing product within two days in a universal buffer system (PBS, pH 7.4, 50% DMSO) without the need for a redox pair, as shown in Fig 8A. The binding of these folded peptides to their respective target proteins was confirmed using SPR (Table 4 and S1 Data) and binding kinetics are exemplified by the high-affinity peptide 5ji4-CRD7-2 (see Fig 8B). Among seven selected ELISA-positive hits, all of them were successfully synthesized and in vitro folded with three disulfide bonds and five were proven to be validated binders by SPR (Table 4). Nine peptides selected from the NGS ranking were synthesized and folded with the expected number of disulfide bonds and five of them bound to their target with affinities in the μM range as determined by SPR (Table 4). In general, binding affinities for these SPR-validated initial hits are weak, with Kd values in the micromolar range and fast on- and off-rates. There are two exceptions with binding affinities in the nanomolar range.
# (§2) The 5ji4 libraries were constructed following the Kunkel mutagenesis method and the solution panning protocol was followed as previously described. After four to five rounds of binding selection, while eluted pool was subjected to NGS analysis, individual phage clones were also picked and analyzed with phage spot ELISA. Positive clones were subjected to SANGER sequencing.
# [2] = target: T1, CD8α-Fc (Homo sapiens, UniProt P01732); test: SPR binding to CD8α-Fc; conditions: folded synthetic peptide; Biacore S200, 25°C, HBS-EP w. 5% DMSO, single-cycle kinetics; kinetic fitting (values not marked *); N.B. = no binding
# T1 construct: purchased R&D AVI10927
# Description: (§3) Peptide synthesis was done by CSBio (Menlo Park, CA). The linear peptides were synthesized as free N- and C- terminus. For the small-scale in vitro folding test, linear peptides were dissolved in 100% DMSO as 10 mg/ml stock, then 1/20 diluted into folding buffers. Five different buffer conditions were tested: [1] 0.1 M NH4HCO3 pH 9.0, 2 mM reduced glutathione, 0.5 mM oxidized glutathione, and 9% DMSO; [2] 0.1 M NH4HCO3 pH 8.0, 1 mM reduced glutathione, and 55% DMSO; [3] dI-water w. 5% DMSO; [4] 1X PBS pH 7.4 w. 10% DMSO; and [5] 1X PBS pH 7.4 w. 50% DMSO. Refolding was promoted by incubation at R.T. with gentle rotation and monitored by LC-MS for disulfide bond formation. […] Therefore, buffer condition was used as a universal refolding buffer for all HCP peptides. After refolding, peptides with three disulfide bonds were purified by HPLC according to standard procedure and subjected to SPR measurements.
# (§4) All binding experiments were performed using a Biacore S200 instrument (GE Healthcare) at 25°C at a flow rate of 30 μl/min in HBS-EP buffer (Cytiva, #BR100188) w. 5% DMSO. The kinetics and affinity measurements were carried out using single-cycle kinetics (SCK) and referenced by subtracting the signal from the blank flow cell. […]
# [3] = system: CD28; test: phage spot ELISA on CD28; assay type: binding
# Text: as §1, §2
# [4] = target: CD28-Fc (Homo sapiens, UniProt P10747); test: SPR binding to CD28-Fc; parameters: purchased R&D 342-CD-200; conditions: folded synthetic peptide; Biacore S200, 25°C, HBS-EP w. 5% DMSO, single-cycle kinetics; kinetic fitting (values not marked *); N.B. = no binding
# Description: as §3, §4
# [5] = target: T2, Fz7CRD-Fc (Homo sapiens, UniProt O75084); test: SPR binding to Fz7CRD-Fc; conditions: folded synthetic peptide; Biacore S200, 25°C, HBS-EP w. 5% DMSO, single-cycle kinetics; kinetic fitting (values not marked *); N.B. = no binding
# T2 construct: Fz7CRD-Fc (R&D, #6178-FZ-50); purchased R&D 6178-FZ-50
# [6] = target: VEGF_(8-109) (UniProt P15692); test: SPR; Biacore S200, target on Series S Sensor Chip SA, peptide flowed, single-cycle kinetics, three-fold dilution series from approximately 100 μM, 25°C, 30 μl/min, HBS-EP with 5% DMSO; steady-state equilibrium model
# [7] = target: T3, HtrA1^PD-S/A (human, UniProt Q92743 161-379, S328A); test: SPR; Biacore S200, HtrA1^PD-S/A on Series S Sensor Chip SA, peptide flowed, 25°C, 30 μl/min, HBS-EP with 5% DMSO; fit model not told for these values; conditions: both partners purified
# T3 construct: serine protease HtrA1, D161-K379 with S328A; source: E. coli, produced in-house (Genentech)
# [8] = target: human full-length HtrA1 (human, UniProt Q92743 23-480); test: cell-based or functional assay
# [9] = target: T4, RSP02-Fc (UniProt Q6UXX9 22-243); test: SPR; Biacore S200, Fc-fusion target on Sensor Chip Protein A, peptide flowed, single-cycle kinetics, three-fold dilution series from approximately 100 μM, 25°C, 30 μl/min, HBS-EP with 5% DMSO; 1:1 binding (kinetic) model, or no binding seen; conditions: both partners purified
# T4 construct: bought as Fc fusion; captured on a Protein A sensor chip by its Fc; source: bought: Biolegend, #786206
# [10] = phage spot ELISA of the clone, positive hit: signal > 0.3 and signal/noise > 2
# [11] = phage spot ELISA signal/noise ratio
# T1 sequence (P01732 22-182 limits assumed): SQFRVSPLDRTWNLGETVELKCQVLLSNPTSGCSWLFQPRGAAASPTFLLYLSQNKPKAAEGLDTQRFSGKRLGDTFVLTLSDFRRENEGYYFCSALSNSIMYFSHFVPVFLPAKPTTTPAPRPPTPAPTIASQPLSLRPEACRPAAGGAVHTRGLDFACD
# Sequence of CD28-Fc (P10747 19-152 limits assumed): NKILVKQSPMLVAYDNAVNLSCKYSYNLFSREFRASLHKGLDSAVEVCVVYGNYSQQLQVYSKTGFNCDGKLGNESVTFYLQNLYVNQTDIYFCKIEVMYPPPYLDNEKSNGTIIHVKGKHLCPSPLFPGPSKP
# T4 sequence (Q6UXX9 22-243): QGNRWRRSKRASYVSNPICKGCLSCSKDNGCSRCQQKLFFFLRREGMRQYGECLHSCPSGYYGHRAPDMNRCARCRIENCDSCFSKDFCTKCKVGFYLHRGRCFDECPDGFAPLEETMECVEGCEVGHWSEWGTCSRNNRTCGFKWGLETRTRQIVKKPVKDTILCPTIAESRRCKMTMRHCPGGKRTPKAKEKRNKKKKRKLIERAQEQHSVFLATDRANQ
# Sequence of human full-length HtrA1 (Q92743 23-480): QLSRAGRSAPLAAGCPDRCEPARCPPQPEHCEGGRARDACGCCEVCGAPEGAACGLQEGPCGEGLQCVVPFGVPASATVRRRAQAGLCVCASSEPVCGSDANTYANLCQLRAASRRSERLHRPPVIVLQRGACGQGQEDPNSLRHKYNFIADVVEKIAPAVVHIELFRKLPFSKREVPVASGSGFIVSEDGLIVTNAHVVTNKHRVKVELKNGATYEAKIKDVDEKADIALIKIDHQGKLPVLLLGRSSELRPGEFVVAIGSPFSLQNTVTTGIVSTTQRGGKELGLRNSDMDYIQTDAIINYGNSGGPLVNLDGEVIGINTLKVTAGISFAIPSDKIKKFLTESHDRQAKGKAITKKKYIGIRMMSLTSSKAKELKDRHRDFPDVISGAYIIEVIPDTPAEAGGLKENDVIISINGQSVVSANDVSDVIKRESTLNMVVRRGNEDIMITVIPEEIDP
# T3 sequence (Q92743 161-379 S328A): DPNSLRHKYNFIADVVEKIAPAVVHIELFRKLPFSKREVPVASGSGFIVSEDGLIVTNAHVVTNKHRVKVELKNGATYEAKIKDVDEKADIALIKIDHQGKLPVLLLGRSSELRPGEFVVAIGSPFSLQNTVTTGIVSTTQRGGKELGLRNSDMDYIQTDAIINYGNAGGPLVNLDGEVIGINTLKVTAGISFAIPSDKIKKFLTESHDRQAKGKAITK
molecule,measurement,setting,value
"P C D C DVNGETYTVSSSEE C EPL C LNWLSSL C RVH C G (bicyclic or more) [5ji4-CD8-16, 5JI4 library hit for CD8α, synthesized and folded in vitro]",ELISA signal,[1]; [10],3.43
same,ELISA s/n,[1]; [11],37.34
same,SPR Kd,[2],N.B.
"P C E C DVNGETYTVSSSEG C ERL C SWDQGKW C RVH C G (bicyclic or more) [5ji4-CD28-7, 5JI4 library hit for CD28, synthesized and folded in vitro]",ELISA signal,[3]; [10],0.25
same,ELISA s/n,[3]; [11],3.48
same,SPR Kd,[4],N.B.
"P C E C EDTTFFIIFNSSEE C ERL C RKLGVTN C RVH C G (bicyclic or more) [5ji4-CD28-4, 5JI4 library hit for CD28, synthesized and folded in vitro]",SPR Kd,[4],N.B.
"P C E C LVTPYKDDYKSSEE C ERL C RKLGVTN C RVH C G (bicyclic or more) [5ji4-CD8-8, 5JI4 library hit for CD8α, synthesized and folded in vitro]",SPR Kd,[2],N.B.
"P C E C PIRPYGVPVKSSEE C ERL C MNDWATT C RVH C G (bicyclic or more) [5ji4-CRD7-5, 5JI4 library hit for CRD7, synthesized and folded in vitro]",SPR Kd,[5],N.B.
PCECFMYDILVGLASSEECKRLCWGFGQSDCRVHCG [5ji4-VEGF-5],Kd,[6],86 µM
B1,Kd,[7],2.72 µM
PCECTILRGWHFLTSSAECERLCRKLGVTNCRVHCG,"inhibition of HtrA1 enzyme activity (cleavage of the fluorescence-quenched substrate H2-OPT), IC50",[8],38 µM
B2,Kd,[9],22 ± 17 µM
